Patent US9067894B1, “Compound, composition, and method of activating GIRK potassium channel and use of same for treating conditions of interest” (Vanderbilt University, priority 2013, dated 2015)

How the values were obtained:
Adenosine A3 = molecular target: T1, Adenosine A3 (Homo sapiens, UniProt P0DMS8); test: Radioligand displacement (Ricerca); format: binding
T1 construct: Ricerca (contract assay)

GIRK2 = molecular target: T2, GIRK2 (Homo sapiens, UniProt P48051); test: Whole-cell voltage-clamp, GIRK2-expressing HEK-293 cells; format: cell-based; settings: cell line GIRK2
T2 construct: expressed in transfected cells; host or cells: HEK-293
T2 sequence (P48051 1-423): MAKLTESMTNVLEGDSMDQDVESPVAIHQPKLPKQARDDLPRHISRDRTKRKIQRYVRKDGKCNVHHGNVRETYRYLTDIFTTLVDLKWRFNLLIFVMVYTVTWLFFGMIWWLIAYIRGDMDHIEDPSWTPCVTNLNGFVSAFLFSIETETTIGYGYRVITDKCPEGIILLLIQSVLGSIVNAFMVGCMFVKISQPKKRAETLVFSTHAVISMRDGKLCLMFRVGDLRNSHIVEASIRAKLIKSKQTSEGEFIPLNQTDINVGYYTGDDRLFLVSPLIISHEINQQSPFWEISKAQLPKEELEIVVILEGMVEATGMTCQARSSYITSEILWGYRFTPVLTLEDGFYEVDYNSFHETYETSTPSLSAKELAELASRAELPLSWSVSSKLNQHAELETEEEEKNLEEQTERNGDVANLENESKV
From the text: Cell Line Construction and Cell Culture. HEK-293 cells co-expressing human GIRK1/2 and rat mGlu8 were generated as previously described (Niswender et al., 2008). A HEK-293 cell line (ATCC, Manassas, Va.) expressing human GIRK1 and human GIRK2 was constructed by transfecting HEK-293 cells with GIRK1 and GIRK2 (Origene, Rockville, Md.) cloned into the pBudCE4.1 vector (Life Technologies, Carlsbad, Calif.) using FuGene 6 (Promega, Madison, Wis.) transfection reagent. […]
(§1) A single-cell suspension of HEK-293 cells stably transfected with the appropriate ion channels were plated into TC-treated 35 mm polystyrene dishes at ˜15% confluence and incubated overnight in a 5% CO2 cell culture incubator at 37° C. […] Whole cell currents were recorded in 20K extracellular solution at −70 mV using a Pico 1 amplifier (Tecella, Foothill Ranch, Calif.) controlled by WINWCP 4.X (University of Strathclyde, Glasgow, Scotland, UK). […] One day after transfection, cells were plate into 35 mm polystyrene dishes, incubated and recorded as described above. […]
(§2) Voltage-clamp data were analyzed by converting current amplitudes to current density by dividing by each cell's membrane capacitance estimated from capacitance compensation. […]

Dopamine D4.2 = molecular target: T3, Dopamine D4.2 (Homo sapiens, UniProt P21917, DEL265-296); test: Radioligand displacement (Ricerca); format: binding
T3 construct: Ricerca

GABAA (muscimol) = test: Radioligand displacement (Ricerca); format: binding, rat; settings: 10 μM
Adrenergic β1 = molecular target: T4, Adrenergic β1 (Homo sapiens, UniProt P08588); test: Radioligand displacement (Ricerca); format: binding
T4 construct: Ricerca (contract assay)

GIRK1/2 = molecular target: T5, GIRK1/2 (Homo sapiens, UniProt P48051+P48549); test: Whole-cell voltage-clamp, GIRK1/2-expressing HEK-293 cells; format: cell-based; set-up: host or cells: HEK-293
T5 sequence (P48549 1-501): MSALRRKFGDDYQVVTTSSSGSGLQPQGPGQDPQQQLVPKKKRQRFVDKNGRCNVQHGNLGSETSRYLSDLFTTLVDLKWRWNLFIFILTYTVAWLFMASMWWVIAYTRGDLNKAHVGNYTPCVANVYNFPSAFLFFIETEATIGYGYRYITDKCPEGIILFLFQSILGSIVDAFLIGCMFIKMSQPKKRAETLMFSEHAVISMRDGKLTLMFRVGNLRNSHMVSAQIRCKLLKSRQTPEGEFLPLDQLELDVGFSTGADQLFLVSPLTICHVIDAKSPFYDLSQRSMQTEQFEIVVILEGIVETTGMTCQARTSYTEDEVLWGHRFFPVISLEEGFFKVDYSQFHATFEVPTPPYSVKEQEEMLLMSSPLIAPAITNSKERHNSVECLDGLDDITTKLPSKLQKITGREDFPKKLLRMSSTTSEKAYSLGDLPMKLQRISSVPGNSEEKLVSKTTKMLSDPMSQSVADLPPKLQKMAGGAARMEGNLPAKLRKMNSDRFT
T5 sequence (P48051 1-423): T2 sequence (P48051 1-423)
From the text: Cell Line Construction and Cell Culture. HEK-293 cells co-expressing human GIRK1/2 and rat mGlu8 were generated as previously described (Niswender et al., 2008). A HEK-293 cell line (ATCC, Manassas, Va.) expressing human GIRK1 and human GIRK2 was constructed by transfecting HEK-293 cells with GIRK1 and GIRK2 (Origene, Rockville, Md.) cloned into the pBudCE4.1 vector (Life Technologies, Carlsbad, Calif.) using FuGene 6 (Promega, Madison, Wis.) transfection reagent. Unless otherwise noted, other ion channel-expressing cells were prepared by transfecting HEK-293 cells with individual or combinations of subunits: GIRK1, pCMV6-A-BSD; GIRK2, pCMV6-A-puro; GIRK3, pCMV6-A-hygro; GIRK4, pCMV6-A-AC; Kv7.4, pIRESneo3. The Kir2.1 and hERG-expressing cell lines were made by transfecting T-REx-293 cells (Life Technologies, Carlsbad, Calif.) with Kir2.1 and Kv11.1, respectively, cloned into pcDNA5TO. Monoclonal cell lines were produced by limiting-dilution cloning of antibiotic-resistant cells and functional selection using the thallium flux assay described below. Unless otherwise noted, cells were maintained in Minimal Essential Medium, Alpha Medium (Mediatech, Manassas, Va.) supplemented with 10% fetal bovine serum (Sigma-Aldrich, Saint Louis, Mo.) and GlutaGro (Mediatech, Manassas, Va.), referred to henceforth as cell culture medium. […]
as §1, §2

Endothelin ETB = molecular target: T6, Endothelin ETB (Homo sapiens, UniProt P24530); test: Radioligand displacement (Ricerca); format: binding
T6 construct: Ricerca

N-Type Ca channel = molecular target: T7, N-Type Ca channel (Rattus norvegicus, UniProt Q02294); test: Radioligand displacement (Ricerca); format: binding
T7 construct: Ricerca
T7 sequence (Q02294 whole entry): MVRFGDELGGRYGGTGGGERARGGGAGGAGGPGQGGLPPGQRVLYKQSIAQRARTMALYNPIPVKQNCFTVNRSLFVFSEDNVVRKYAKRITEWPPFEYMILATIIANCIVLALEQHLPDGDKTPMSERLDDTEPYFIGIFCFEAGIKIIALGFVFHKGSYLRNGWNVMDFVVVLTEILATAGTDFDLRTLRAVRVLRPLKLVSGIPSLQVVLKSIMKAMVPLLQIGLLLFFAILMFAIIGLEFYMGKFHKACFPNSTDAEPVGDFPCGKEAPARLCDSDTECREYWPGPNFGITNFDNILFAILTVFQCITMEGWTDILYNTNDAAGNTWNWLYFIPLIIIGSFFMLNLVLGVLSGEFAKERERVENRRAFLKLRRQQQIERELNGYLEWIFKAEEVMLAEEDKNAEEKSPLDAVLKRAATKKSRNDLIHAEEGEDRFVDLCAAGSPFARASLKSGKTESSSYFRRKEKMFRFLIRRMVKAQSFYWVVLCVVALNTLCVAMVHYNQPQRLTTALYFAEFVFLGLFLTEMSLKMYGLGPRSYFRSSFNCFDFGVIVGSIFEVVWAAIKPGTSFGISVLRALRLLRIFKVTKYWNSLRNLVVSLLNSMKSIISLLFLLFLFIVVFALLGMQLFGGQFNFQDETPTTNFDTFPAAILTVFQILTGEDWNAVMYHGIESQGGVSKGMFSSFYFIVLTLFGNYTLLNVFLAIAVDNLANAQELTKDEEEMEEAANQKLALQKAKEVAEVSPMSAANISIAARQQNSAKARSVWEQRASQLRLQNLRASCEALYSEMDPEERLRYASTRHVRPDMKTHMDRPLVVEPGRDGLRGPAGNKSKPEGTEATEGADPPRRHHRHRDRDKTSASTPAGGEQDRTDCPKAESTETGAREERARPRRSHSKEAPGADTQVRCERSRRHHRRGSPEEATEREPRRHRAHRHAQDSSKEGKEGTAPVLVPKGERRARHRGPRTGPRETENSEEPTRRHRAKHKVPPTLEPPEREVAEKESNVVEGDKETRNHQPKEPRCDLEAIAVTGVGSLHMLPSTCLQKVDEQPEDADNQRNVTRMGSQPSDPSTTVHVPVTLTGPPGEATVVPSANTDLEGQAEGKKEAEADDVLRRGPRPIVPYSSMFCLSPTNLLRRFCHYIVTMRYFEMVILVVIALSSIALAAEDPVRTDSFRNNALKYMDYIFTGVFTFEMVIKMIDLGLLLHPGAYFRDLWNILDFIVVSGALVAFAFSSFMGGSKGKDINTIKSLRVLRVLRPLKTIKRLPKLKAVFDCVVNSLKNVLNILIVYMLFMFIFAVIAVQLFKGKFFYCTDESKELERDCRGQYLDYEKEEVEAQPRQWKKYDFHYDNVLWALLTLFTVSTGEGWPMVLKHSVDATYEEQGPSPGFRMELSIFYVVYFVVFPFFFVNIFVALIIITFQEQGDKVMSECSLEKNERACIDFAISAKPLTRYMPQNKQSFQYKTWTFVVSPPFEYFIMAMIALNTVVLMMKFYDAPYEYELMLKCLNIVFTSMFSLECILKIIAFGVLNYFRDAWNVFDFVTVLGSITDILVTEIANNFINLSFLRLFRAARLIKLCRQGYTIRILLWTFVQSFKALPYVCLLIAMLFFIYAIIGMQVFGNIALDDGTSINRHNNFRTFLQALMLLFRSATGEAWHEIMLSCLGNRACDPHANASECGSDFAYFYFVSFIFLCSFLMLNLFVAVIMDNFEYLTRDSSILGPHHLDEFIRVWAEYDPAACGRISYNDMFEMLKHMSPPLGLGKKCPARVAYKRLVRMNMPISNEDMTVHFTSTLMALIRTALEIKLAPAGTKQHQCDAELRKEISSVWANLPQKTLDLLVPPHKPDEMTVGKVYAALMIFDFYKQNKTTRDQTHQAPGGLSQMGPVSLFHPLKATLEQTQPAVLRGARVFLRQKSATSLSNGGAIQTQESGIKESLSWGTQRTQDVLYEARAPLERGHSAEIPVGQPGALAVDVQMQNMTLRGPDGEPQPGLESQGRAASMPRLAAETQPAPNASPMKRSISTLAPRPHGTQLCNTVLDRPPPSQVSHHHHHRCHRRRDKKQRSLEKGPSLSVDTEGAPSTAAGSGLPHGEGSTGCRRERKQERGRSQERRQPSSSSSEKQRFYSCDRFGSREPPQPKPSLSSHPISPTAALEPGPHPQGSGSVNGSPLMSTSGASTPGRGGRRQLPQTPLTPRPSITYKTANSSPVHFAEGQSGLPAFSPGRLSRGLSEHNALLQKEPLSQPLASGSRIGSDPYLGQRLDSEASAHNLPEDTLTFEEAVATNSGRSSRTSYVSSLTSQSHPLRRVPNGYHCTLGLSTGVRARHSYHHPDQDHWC

T6 sequence (P24530 27-442): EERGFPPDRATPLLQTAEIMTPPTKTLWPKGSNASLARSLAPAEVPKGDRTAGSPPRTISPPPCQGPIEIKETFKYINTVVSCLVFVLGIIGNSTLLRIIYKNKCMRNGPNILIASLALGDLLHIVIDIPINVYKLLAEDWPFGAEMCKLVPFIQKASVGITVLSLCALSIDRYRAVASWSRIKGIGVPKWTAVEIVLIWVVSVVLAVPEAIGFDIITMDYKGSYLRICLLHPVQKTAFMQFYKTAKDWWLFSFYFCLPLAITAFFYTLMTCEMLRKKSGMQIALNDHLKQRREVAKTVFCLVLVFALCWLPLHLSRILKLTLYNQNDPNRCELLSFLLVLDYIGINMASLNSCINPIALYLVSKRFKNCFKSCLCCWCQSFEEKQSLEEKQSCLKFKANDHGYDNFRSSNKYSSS
T4 sequence (P08588 whole entry): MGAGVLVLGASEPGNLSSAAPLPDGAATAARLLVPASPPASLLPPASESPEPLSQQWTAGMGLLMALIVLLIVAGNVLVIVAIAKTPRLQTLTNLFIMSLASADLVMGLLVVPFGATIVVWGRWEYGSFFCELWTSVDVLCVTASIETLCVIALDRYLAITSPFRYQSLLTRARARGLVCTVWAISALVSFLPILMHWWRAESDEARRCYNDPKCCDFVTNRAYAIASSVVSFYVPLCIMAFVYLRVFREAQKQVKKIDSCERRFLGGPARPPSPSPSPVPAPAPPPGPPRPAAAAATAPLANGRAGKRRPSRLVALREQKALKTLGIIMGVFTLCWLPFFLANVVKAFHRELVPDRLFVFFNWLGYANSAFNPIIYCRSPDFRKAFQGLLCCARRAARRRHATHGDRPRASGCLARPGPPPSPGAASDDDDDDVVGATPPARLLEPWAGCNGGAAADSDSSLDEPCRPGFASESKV
T1 sequence (P0DMS8 whole entry): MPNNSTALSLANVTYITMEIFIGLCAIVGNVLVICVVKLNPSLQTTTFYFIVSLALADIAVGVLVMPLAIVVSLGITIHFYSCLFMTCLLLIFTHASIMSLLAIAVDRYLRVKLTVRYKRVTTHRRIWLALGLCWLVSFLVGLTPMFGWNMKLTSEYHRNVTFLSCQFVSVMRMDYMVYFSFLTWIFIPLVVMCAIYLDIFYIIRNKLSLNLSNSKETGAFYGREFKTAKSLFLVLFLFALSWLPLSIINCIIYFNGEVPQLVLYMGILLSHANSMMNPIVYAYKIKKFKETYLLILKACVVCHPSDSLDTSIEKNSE
T3 sequence (P21917 with tags, fused parts or gaps DEL265-296): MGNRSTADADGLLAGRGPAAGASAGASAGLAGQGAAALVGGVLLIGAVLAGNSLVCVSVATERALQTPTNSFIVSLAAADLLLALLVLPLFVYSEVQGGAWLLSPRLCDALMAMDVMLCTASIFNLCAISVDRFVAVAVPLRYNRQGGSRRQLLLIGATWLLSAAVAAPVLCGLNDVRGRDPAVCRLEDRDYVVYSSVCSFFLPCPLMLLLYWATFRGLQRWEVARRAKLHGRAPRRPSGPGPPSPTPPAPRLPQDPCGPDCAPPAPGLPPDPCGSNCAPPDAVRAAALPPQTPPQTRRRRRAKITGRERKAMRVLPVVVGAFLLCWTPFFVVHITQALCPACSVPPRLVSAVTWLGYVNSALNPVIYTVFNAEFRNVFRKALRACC

## Cc1cc(NC(=O)Nc2ccc(F)c(F)c2)n(-c2ccccc2)n1 [VU0456810, 1-(3,4-difluorophenyl)-3-(3-methyl-1-phenyl-1H-pyrazol-5-yl)urea]
Adenosine A3
  inhibition at 10 µM: 8%
GIRK2
  EC50 Voltage Clamp: Inactive
Dopamine D4.2
  inhibition at 10 µM: 4%
GABAA (muscimol)
  % Inhibition: 49%
Adrenergic β1
  inhibition at 10 µM: 0%
GIRK1/2; 10 μM, local superfusion
  time to 90% of maximal current amplitude after application: approximately 2 seconds
GIRK1/2; after application was terminated
  washout time: nearly a minute
GIRK1/2; cell line GIRK1-2, average ± SEM
  EC50: 584 ± 175 nM
Endothelin ETB
  inhibition at 10 µM: 3%
N-Type Ca channel
  inhibition at 10 µM: 5%
